We go through one compound from patent US6331555A, “Treatment of platelet derived growth factor related disorders such as cancers” (priority 1999, dated 2001).

The subject of assay [1] is NIH3T3 cells overexpressing the human PDGF-b receptor. Kind of assay: PDGF-stimulated cell cycle progression, flow cytometry. The class given is cell-based, mouse. As to the method: NIH3T3 mouse fibroblasts overexpressing the human PDGF-β receptor were seeded in DMEM supplemented with 10% CS and 2 mM GLN. Cells were grown to about 80% confluence and then treated overnight in serum-free medium (DMEM, 2 mM GLN, 2 mM NEAA, 2 mM NaPyr, and 2 mM HEPES). […] Cells were then collected, strained and analyzed by flow cytometry for DNA content.
The percentage of cells in the S phase of the cell cycle was determined by flow cytometry.
The cells were analyzed for DNA content by flow cytometry.
A general note: A flow cytometer gives signals particle by particle.

The subject of assay [2] is ovarian carcinoma primary tumor cells. Kind of assay: Growth of primary tumor cells from ovarian carcinoma patients. In kind it is cell-based, human. The arrangement: tumor cell growth: dose or concentration left out as unconfirmed. How it is done: Viable tumors were placed into medium by the pathologist at the referring institution immediately after surgery, and shipped to Oncotech by overnight delivery. As soon as a tumor was received, a portion was fixed in formalin for sectioning and the remainder trimmed of necrotic, connective and adipose tissues. All tumor manipulations were performed aseptically. The remaining tumor was placed into a Petri dish containing 5 mL of medium (RPMI 1640 supplemented with 10% FBS, 100 IU/mL penicillin, […] streptomycin and L-glutamine) and disaggregated mechanically with scissors into pieces 2 mm or smaller. […]
After enzymatic dispersion into a near single-cell suspension, tumor cells were filtered through nylon mesh, washed in medium, suspended in soft agarose (0.12%) and plated at approximately 20,000 cells per well onto an agarose underlayer (0.4%) in 24-well plates. […] After the appropriate labeling period, tissue culture plates were heated at 60° C. to melt the agarose, the cells harvested with a micro-harvester onto glass fiber filters and the radioactivity determined. Percent inhibition (PCI) was determined using the formula: PCI=1-(CPM treatment group […] CPM control group). Determinations of control group proliferation were performed in quadruplicate, while treatment group proliferation was determined in triplicate. […]

Assay [3] concerns 7TD1 (B-cell hybridoma) cells. Briefly: Survival, IP 7TD1 B-cell hybridoma in C57BL/6 mice. The class given is in vivo, mouse. How it is done: Cell lines were grown in the appropriate media as described in Appendix 1. Cells were harvested and washed in sterile PBS or medium without FBS, resuspended to a suitable concentration, and injected into the IP cavity of […] of the appropriate strain. Prior to implantation of 7TD1 cells, C57BL/6 mice were primed by IP injection of 0.5 mL Pristane. SKOV3T cells were implanted into athymic mice without Pristane priming. Mice were observed daily for the occurrence of ascites formation. Individual animals were sacrificed when they presented with a weight gain of 40%, or when the IP tumor burden began to cause undue stress and pain to the animal.
All animals in the control group died by day 9, while 3 of 8 animals in the A10-treated group survived past day 80.

The next assay concerns C6 cells. Briefly: Intracerebral C6 tumor, athymic mice, survival. The class given is in vivo, rat. Conditions: IC C6, athymic mice. As to the method: FIG. 4. In two separate experiments, C6 cells (1×10^5 cells in 4 μL) were implanted into the cerebrum of BALB/c, nu/nu mice. […] V=vehicle control. n=8 to 12 (Expt #1), or 5 (Expt #2) animals per group. * P<0.00001; ** P<0.002; *** P<0.02 compared to vehicle control.
For the mouse IC model, rat C6 glioma cells were harvested and suspended in sterile PBS at a concentration of 2.5×10^7 cells/mL and placed on ice. Cells were implanted into BALB/c, nu/nu mice in the following manner: the frontoparietal scalps of mice were shaved with animal clippers if necessary before swabbing with 70% ethanol. Animals were anesthetized with isofluorane and the needle was inserted through the skull into the left hemisphere of the brain. Cells were dispensed from Hamilton Gas-tight Syringes using 30 gauge 1/2 inch needles fitted with sleeves that allowed only a 3 mm penetration. A repeater dispenser was used for accurate delivery of 4 μL of cell suspension.

The subject of another assay is WEHI-164.13 cells. Briefly: CTL generation in tumor-bearing mice (MLTC). The arrangement: CTL activity: key to the marks not given beside the values. Conditions: 20 mg/kg/day. In kind it is in vivo, mouse. As to the method: BALB/c mice received SC implants of syngeneic WEHI-164.13 fibrosarcoma cells on day 0. […] On day 17, the animals were sacrificed and their spleens were removed. The spleen cells were assayed in vitro for responses to alloantigens and mitogens.
The spleen cells were also assayed for the generation of WEHI-164.13-specific cytotoxic T-lymphocytes (CTL) in the mixed lymphocyte tumor cell culture (MLTC). Spleen cells from untreated tumor-bearing animals mounted a vigorous CTL response (44% specific lysis at E:T=50:1). This response was inhibited almost completely in animals receiving the vehicle alone (13% specific lysis). […] (Walia, et al., Proc. Soc. Exp. Biol. Med., 192:177-200, 1989.)

The test system of another assay is tumor xenografts. Briefly: Xenografts of various tumor types in mice. The class given is in vivo. As to the method: Cell lines were grown in appropriate medium (see Appendix 1). Cells were harvested at or near confluency with 0.05% Trypsin-EDTA and pelleted at 450×g for 10 min. Pellets were resuspended in sterile PBS or media (without FBS) to a particular concentration and the cells were implanted into the hindflank of mice. Tumor growth was measured over 3 to 6 weeks using venier calipers. Tumor volumes were calculated as a product of length×width×height unless otherwise indicated. P values were calculated using the Students' t-test.

One may read the IC50 as the concentration needed to halve the response being measured. Take `Cc1oncc1C(=O)Nc1ccc(C(F)(F)F)cc1` [Compound A10, 5-methylisoxazole-4 carboxylic acid-(4-trifluromethyl)-anilide]: in assay [1], the “number of cells progressing to the S phase in response to PDGF” value is given as “dose-dependent decrease in the number of cells progressing to the S phase”. The tumor cell growth entry in assay [2] is “tumor cell growth decreased for both types of tumors”. Besides, in assay [2] (Homo sapiens, range over six patients, read-out: IC50, ovarian tumors), the IC50 fell in the range of 20 to 140 µM. In addition, in assay [3] (15 mg/kg/day IP in DMSO), the “survival” value is “significantly increase the survival”. Moreover, the animals surviving in assay [3] (15 mg/kg/day IP in DMSO 30 days, past day 80) was 3 of 8. The average survival time entry with C6 cells was “significantly increased compared to controls”. In the assay with WEHI-164.13 cells (vehicle 13%, untreated 44%), the “CTL response, specific lysis” value is given as 78%. Moreover, the CTL activity entry with WEHI-164.13 cells (Tumor stimulus) was “++”. The “growth of xenografts” value with tumor xenografts (12 to 20 mg/kg/day, glioma, SKOV3T, PA-1, A375, PC-3, Calu-6, D1B, L1210) is recorded as “effectively inhibited the growth”. For the same compound, the “inhibition of glioma growth” value with tumor xenografts (xenografted gliomas in mice, some animals, relative to untreated controls) is given as “greater than 95%”.
